Key:
Assay in all cases: relative viability (nuclei count vs DMSO), 5 days (fraction); higher = more cells survive
[1] = compound: CC1=C(C=C(C=C1)NC(=O)C2=CC(=CC=C2)C(C)(C)C#N)NC3=CC4=C(C=C3)N=CN(C4=O)C [AZ628] + COc1cc2c(Oc3ccc(NC(=O)C4(C(=O)Nc5ccc(F)cc5)CC4)cc3F)ccnc2cc1OCCCN1CCOCC1 [Foretinib] (partner 0.25 µM)
Outline: (§1)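 Relative viability is defined as nuclei in treated wells over nuclei in vehicle wells. Duplicate plates were run and medians reported. Lung cancer cell lines in 1536-well plates were dosed by pin tool one day after seeding, with one drug or with a fixed anchor-drug dose plus five library-drug doses (not always all listed) in √10 steps, and nuclei were counted after 5 days.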

[2] = compound: CC1=C(C=C(C=C1)NC(=O)C2=CC(=CC=C2)C(C)(C)C#N)NC3=CC4=C(C=C3)N=CN(C4=O)C [AZ628] + CC(C)C[C@H](NC(=O)[C@H](Cc1ccccc1)NC(=O)c1cnccn1)B(O)O [Bortezomib] (partner 0.002 µM)
Outline: as §1

[3] = compound: CC1=C(C=C(C=C1)NC(=O)C2=CC(=CC=C2)C(C)(C)C#N)NC3=CC4=C(C=C3)N=CN(C4=O)C [AZ628] + CS(=O)(=O)CCNCc1ccc(-c2ccc3ncnc(Nc4ccc(OCc5cccc(F)c5)c(Cl)c4)c3c2)o1 [Lapatinib] (partner 2 µM)
Outline: as §1

[4] = compound: C1CC2=C(C1)C=C(C=C2)OC3=NC(=C4C(=N3)N(C=N4)CC5=CC=C(C=C5)C6=CC=CC=C6)N[C@@H](CC7=CC=CC=C7)CO [QS11] + CC(=O)c1c(C)c2cnc(Nc3ccc(N4CCNCC4)cn3)nc2n(C2CCCC2)c1=O [Palbociclib] (partner 0.5 µM)
Outline: as §1

| Cell Line | relative viability ([1]; first compound 0.08 µM) | relative viability ([1]; first compound 0.253 µM) | relative viability ([1]; first compound 0.8 µM) | relative viability ([1]; first compound 2.53 µM) | relative viability ([1]; first compound 8 µM) | relative viability ([2]; first compound 0.08 µM) | relative viability ([2]; first compound 0.253 µM) | relative viability ([2]; first compound 0.8 µM) | relative viability ([2]; first compound 2.53 µM) | relative viability ([2]; first compound 8 µM) | relative viability ([3]; first compound 0.08 µM) | relative viability ([3]; first compound 0.253 µM) | relative viability ([3]; first compound 0.8 µM) | relative viability ([3]; first compound 2.53 µM) | relative viability ([3]; first compound 8 µM) | relative viability ([4]; first compound 0.08 µM) | relative viability ([4]; first compound 0.253 µM) | relative viability ([4]; first compound 0.8 µM) | relative viability ([4]; first compound 2.53 µM) | relative viability ([4]; first compound 8 µM) |
| --- | --- | --- | --- | --- | --- | --- | --- | --- | --- | --- | --- | --- | --- | --- | --- | --- | --- | --- | --- | --- |
| NCI-H2009 | 1.02 | 0.861 | 0.704 | 0.573 | 0.355 | 0.939 | 0.881 | 0.65 | 0.689 | 0.295 | 0.548 | 0.799 | 0.469 | 0.715 | 0.294 | 0.203 | 0.233 | 0.209 | 0.181 | 0.17 |
| SK-LU-1 |  | 0.75 | 0.685 | 0.628 | 0.589 | 1.1 | 1.05 | 1.17 | 0.854 | 1.04 | 0.498 | 0.705 | 0.755 | 0.834 | 0.603 | 0.345 | 0.419 | 0.336 | 0.365 | 0.376 |
| RERF-LC-KJ | 0.885 | 0.922 | 0.898 | 0.899 | 0.893 | 1.22 | 1.14 | 1.29 | 1.12 | 1.03 | 0.825 | 0.837 | 0.846 | 0.839 | 0.888 | 1.08 | 0.999 | 0.724 | 0.895 | 0.874 |
| NCI-H322M | 1.05 | 0.985 | 0.952 | 1.02 | 0.829 | 1.36 | 1.46 | 1.28 | 1.38 | 1.11 | 0.674 | 0.737 | 0.747 | 0.646 | 0.657 | 0.516 | 0.461 | 0.468 | 0.517 | 0.593 |
| LK-2 | 1.42 | 0.985 | 1.09 | 1.28 | 0.587 |  |  |  |  |  | 1.06 | 0.56 | 0.885 | 0.799 | 0.537 | 0.723 | 0.826 | 0.777 | 0.507 | 0.705 |
| SK-MES-1 | 0.837 | 0.894 | 0.801 | 0.771 | 0.846 |  |  |  |  |  | 0.475 | 0.501 | 0.479 | 0.473 | 0.437 | 0.322 | 0.285 | 0.268 | 0.311 | 0.295 |
| NCI-H1299 | 1.12 | 1.3 | 1.3 | 1.24 | 0.58 | 1.07 | 1.13 | 1.19 | 1.25 | 1.04 | 1.11 | 1.2 | 1.17 | 1.23 | 0.945 |  |  |  |  |  |
| NCI-H2228 | 0.72 | 0.806 | 0.811 | 0.722 | 0.532 | 0.936 | 1.03 | 0.909 | 0.963 | 0.929 | 1.11 | 1.13 | 0.784 | 0.9 | 1.17 | 0.753 | 0.741 | 1.06 | 0.641 | 1.01 |
| NCI-H1792 |  |  |  |  |  | 1.06 | 0.925 | 0.857 | 0.923 | 0.555 | 0.995 | 0.891 | 0.653 | 0.793 | 0.566 | 0.679 | 0.886 | 0.491 | 0.667 | 0.741 |
| LOU-NH91 | 0.956 | 0.961 | 0.956 | 0.95 | 0.821 | 0.481 | 0.478 | 0.485 | 0.466 | 0.453 | 0.776 | 0.738 | 0.724 | 0.67 | 0.626 | 0.527 | 0.536 | 0.513 | 0.58 | 0.629 |
| IA-LM | 1.28 | 1.04 | 0.821 | 0.861 | 0.2 | 0.931 | 0.689 | 0.54 | 0.551 | 0.165 | 0.881 | 0.831 | 0.315 | 0.373 | 0.2 |  |  |  |  |  |
| SW 900 | 0.931 | 0.874 | 0.971 | 0.685 | 0.619 |  |  |  |  |  |  |  |  |  |  | 0.588 | 0.593 | 0.456 | 0.481 | 0.425 |
| LU99A | 0.862 | 0.767 | 0.833 | 0.861 | 0.431 | 1.15 | 1.21 | 1.31 | 1.07 | 0.451 | 0.973 | 0.966 | 1.11 | 0.943 | 0.573 | 0.421 | 0.469 | 0.437 | 0.4 | 0.395 |
| NCI-H661 | 1.12 | 0.974 | 0.846 | 0.866 | 0.832 | 0.823 | 0.805 | 0.684 | 0.699 | 0.562 | 0.401 | 0.502 | 0.435 | 0.498 | 0.464 | 0.379 | 0.374 | 0.332 | 0.402 | 0.34 |
| EBC-1 | 0.117 | 0.11 | 0.111 | 0.0929 | 0.0846 | 0.636 | 0.605 | 0.642 | 0.685 | 0.472 | 0.219 | 0.205 | 0.251 | 0.22 | 0.199 |  |  |  |  |  |
| NCI-H3122 | 0.787 | 0.625 | 0.499 | 0.613 | 0.233 | 0.987 | 0.887 | 0.723 | 0.696 | 0.444 | 0.975 | 0.733 | 0.733 | 0.684 | 0.435 | 0.171 | 0.225 |  | 0.188 | 0.18 |
| LC-2-ad | 1.02 | 1.06 | 0.947 | 0.978 | 0.863 | 1.06 | 0.926 | 0.972 | 0.972 | 0.751 | 0.949 | 0.867 | 0.446 | 0.72 | 0.474 | 0.512 | 0.47 | 0.405 | 0.451 | 0.501 |
| HCC-78 | 0.732 | 0.748 | 0.715 | 0.621 | 0.67 | 0.675 | 0.457 | 0.586 | 0.487 | 0.623 | 0.81 | 0.725 | 0.961 | 0.703 | 0.479 | 0.462 | 0.531 | 0.464 | 0.457 | 0.358 |

— the supplement of paper PMC10307832
